In patent publication US8501792B2, “Treating cancer with desthiazolyl ritonavir” (priority 2008, dated 2013):
Where two headings read alike, the source gives them in different places.

How the values were obtained:
MDA-MB-231 xenograft = assay: Murine breast cancer xenograft; format: in vivo, female nude mice (nu-/nu-)
Protocol: (§1) Six-8 weeks old female nude mice (nu^−/nu^−) (Charles River Laboratories International, Inc., MA) were injected into a right mammary fat pad with 1×10^6 log-phase MDA-MB-231. Mice were monitored bi-weekly for weight and tumor growth. When tumors reached a volume of approximately 30-40 mm^3 (calculated according to the formula: volume (mm^3)=(length)(width)^2/2), mice were randomized into three groups (each group n=10). One group of mice was injected daily i.p. with ritonavir (20 mg/Kg in 100 μl of ethanol-Tween 80), the second with M1 (20 mg/Kg in 100 μl of ethanol-Tween 80), and the third with vehicle only (100 μl of ethanol-Tween 80). […] Mice were weighted and their tumors were measured twice a week for the entire duration of the treatment (42 days).
One hour after the last drug/vehicle injection plasma, tumors, lungs, liver, tongue, and skin were collected from each mouse. Plasma was stored at −80° C.; half of the tissues were treated to prepare paraffin blocks, and half were frozen in liquid nitrogen and stored at −80° C.

MDA-MB-231 = assay: Western blot protein depletion, MDA-MB-231 (Example 4); format: cell-based
Protocol: (§2) Breast cancer cell lines MDA-MB-231, T47D and SKBR3 were used to study depletion of Hsp90 by M1 and ritonavir. Cells were incubated for 48 hours with 1) ritonavir (R) at its IC50 (20 μM for T47D and 40 μM for MDA-MB-231); 2) M1 at ritonavir's IC50; or DMSO (control). Cell extracts were made according to the method of Srirangam et al., Clin Cancer Res. 2006 Mar. 15; 12(6):1883-96. Briefly, nearly confluent cell monolayers were treated with drug or vehicle (DMSO) for 24 or 48 h. Cells were washed with PBS on ice and scraped in a RIPA buffer containing protease inhibitors including MG-132 and phosphatase inhibitors. The cell lysate protein content was determined by μBCA and equal amounts of protein were loaded per lane. Gel electrophoresis by SDS PAGE was performed with equal protein loading per lane (usually 30 μg) and the separated proteins were transferred to 0.45 μm nitrocellulose filters. The transfer was verified by Ponceau stain of the nitrocellulose filters. The filters were probed by chemiluminescent blotting and then exposed to X-ray film. The signal from the protein of interest was normalized to the GAPDH signal. Student's t-test was used to determine the significance of differences.

SKBR3 = assay: Western blot protein depletion, SKBR3 (Example 4); format: cell-based
Protocol: as §2

T47D = assay: Western blot protein depletion, T47D (Example 4); format: cell-based
Protocol: as §2

T47D (ER+) = assay: MTT proliferation assay, T47D; format: cell-based; details: Homo sapiens
Protocol: Cells (n=2000/well) were seeded in 96 well plates with drug or vehicle (DMSO) on D1 and after 48 h the cell number was determined by MTT assay.

[1] = Tolerability in nude mice (MTD, weight); format: in vivo; details: for MTD: female, nude (nu-/nu-), mouse, in vivo
Protocol: as §1

[2] = system: non-transformed human breast epithelial line MCF10A; assay: MTT proliferation assay, MCF10A; format: cell-based; details: MCF-10A, 48 h
Protocol: M1 inhibition of proliferation of MCF7, T47D and MDA-MB-231 cell lines was studied. Cells (n=2000/well) were seeded in 96 well plates with drug or vehicle (DMSO) on D1 and after 48 h the cell number was determined by MTT assay. Each assay was performed with 8 measurements for each data point (See FIG. 1, wherein graph A corresponds to MCF7, graph B corresponds to T47D, and graph C corresponds to MDA-MB-231).
M1 inhibition of proliferation of MCF7 (ER+), T47D (ER+), MDA-MB-231 (triple negative), SKBR3 (ER−/Her2+), and the non-transformed mammary line MCF10A were studied. Cells (n=2000/well) were seeded in 96 well plates with drug or vehicle (DMSO) on D1 and after 48 h the cell number was determined by MTT assay.

T47D (ER+ line) = assay: Western blot densitometry, T47D (Example 17); format: cell-based; parameters: % Reduction, Total Akt / % Reduction, Phospho Akt / % Reduction, ER-α: concentration or dose not given beside the values; details: 24 or 48 hours
Protocol: An ER^+ line, T47D, was treated with M1 or ritonavir for 24 or 48 hours. The cells were grown to confluence and treated with drug or DMSO vehicle. The cells were scraped on ice into RIPA buffer containing protease inhibitors including MG-132 and phosphatase inhibitors as published (see Srirangam et al. Clincal Ca Research 2006). The RIPA lysate was subjected to electrophoresis, blotted and probed with the appropriate antibodies.

SKBR3 (ER-/Her2+) = assay: Annexin V-FITC/PI apoptosis flow cytometry, SKBR3; format: cell-based
Protocol: Induction of apoptosis was studied in a MCF7 breast cancer cell line. Apoptotic cells were detected using an Annexin V-FITC/PI apoptosis detection kit (Oncagene, Boston, Mass.). After plating at 5×10^5 in a 100-mm plate, the cells were grown for 48 hours in complete medium in presence of M1, ritonavir, or vehicle (DMSO). The culture and drug exposure conditions for the apoptosis assays were done across a range of 5 to 60 μmol/L M1 and ritonavir. Cells were harvested by trypsin treatment, washed with complete medium to neutralize the trypsin, and stained with PI and Annexin V-FITC. A total of 1×10^4 events were analyzed per assay by FACScan analysis using CellQuest software (Becton Dickinson). Replicate assays were done to confirm the results.
A similar study was performed using T47D (ER+), MDA-MB-231 (triple negative) and SKBR3 (ER−/Her2+) cell lines were performed as above.

Hsp90 = assay: 70 kDa Hsp90 fragment after treatment; format: cell-based; details: data not shown

SMILES | G1/S regulatory protein Cyclin D1 (MDA-MB-231; P<0.05) | G1/S regulatory protein Cyclin D1 (SKBR3) | reducing Hsp90 levels (SKBR3) | G1/S regulatory protein Cyclin D1 (T47D; P<0.05) | IC50 ([2]; Example 1, MTT after 48 h) [µM] | IC50 ([2]; Example 6, MTT after 48 h) [µM] | % Reduction, CDK2 (T47D (ER+ line)) [%] | % Reduction, CDK4 (T47D (ER+ line)) [%] | % Reduction, CDK6 (T47D (ER+ line)) [%] | % Reduction, Cyclin D1 (T47D (ER+ line)) [%] | % Reduction, ER-α (T47D (ER+ line)) [%] | % Reduction, Hsp90 (T47D (ER+ line)) [%] | % Reduction, Phospho Akt (T47D (ER+ line)) [%] | % Reduction, Total Akt (T47D (ER+ line)) [%] | fraction of apoptotic cells (SKBR3 (ER-/Her2+)) [%] | further results
CC(C)c1nc(CN(C)C(=O)NC(C(=O)NC(Cc2ccccc2)CC(O)C(N)Cc2ccccc2)C(C)C)cs1 (stereo not shown) [M1, desthiazolyl ritonavir] | reduced | reduced | neither drug reduced | reduced | 50 | 45 | 51.02 | 2.23 | 21.05 | 45.64 | 56.41 | 82.70 | 56.36 | 56.57 | 78 | tumor growth compared to mice treated with only the vehicle (MDA-MB-231 xenograft; 20 mg/Kg daily i.p., 42 days, FIG. 5A): delayed tumor growth; tumor growth compared to ritonavir (MDA-MB-231 xenograft; 20 mg/Kg daily i.p., 42 days, FIG. 5B): statistically significant delay in tumor growth; reduction of the average tumor size (MDA-MB-231 xenograft; at MTD (20 mg/Kg), 42 days of follow-up, P<0.05): 2 -fold; reducing Hsp90 levels (MDA-MB-231; 48 hours, at ritonavir's IC50 (40 μM)): more potent than ritonavir; reducing total Akt, phospho-Akt, GSK3beta, c-src, and survivin (MDA-MB-231; versus ritonavir, P<0.05): more potent; reducing total Akt, phospho-Akt, GSK3beta, c-src, and survivin (SKBR3; versus ritonavir, P<0.05): more potent; reducing Hsp90 levels (T47D; 48 hours, at ritonavir's IC50 (20 μM)): more potent than ritonavir; reducing ER alpha (T47D; versus ritonavir, P<0.05): more potent; reducing total Akt, phospho-Akt, GSK3beta, c-src, and survivin (T47D; versus ritonavir, P<0.05): more potent; IC50 (T47D (ER+); Example 6, MTT after 48 h, read-out: IC50, proliferation): 10 µM; MTD [1]: 20 mg/kg; major 70 kDa Hsp90 fragment (Hsp90): observed
CC(C)c1nc(CN(C)C(=O)N[C@H](C(=O)N[C@@H](Cc2ccccc2)C[C@H](O)[C@H](Cc2ccccc2)NC(=O)OCc2cncs2)C(C)C)cs1 [ritonavir] | reduced | only M1 reduced | neither drug reduced | reduced | 35 | 31 | 49.91 | 23.99 | 11.64 | 42.87 | 33.24 | 48.3 | 9.98 | 5.04 | 11 | effect on MDA-MB-231 xenograft (MDA-MB-231 xenograft; at its MTD (40 mg/Kg)): inhibits; effect on MDA-MB-231 xenograft (MDA-MB-231 xenograft; half its MTD (20 mg/Kg)): ineffective; IC50 (T47D (ER+); 48 h, read-out: IC50, proliferation): 23 µM; IC50 (T47D (ER+); as quoted in Example 4, read-out: IC50): 20 µM; Animal weight loss ([1]; 20 mg/Kg daily i.p., 42 days, FIG. 5C): did not occur; MTD ([1]; nude mice, read-out: maximum tolerated dose (MTD)): 40 mg/kg; 70 kDa Hsp90 fragment, less abundant than with M1 (Hsp90): 3 -fold
